This note sets out measurements from ChEMBL document CHEMBL1201862, “PubChem BioAssay data set” (2004).

SMILES strings stand for the structures.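 Results reflect a 48-hour exposure of cells in 96-well plates to compound at five concentrations. At the GI50, growth is halved.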 Active and inactive are the calls of the source. No stated cut-off is given here; in the data, active = GI50 up to about 1.1 µM and inactive = higher. Some results are limits rather than exact numbers.

Among the test systems are SF-268; BT-549; MDA-N; SW-620; NCI-H226; RXF 393; SK-MEL-5; HCT-116; DU-145; MDA-MB-435; SN12C; HOP-92; K562; MCF7; SNB-75; A498; HOP-62; MOLT-4; SR.
Common to all, as to test: NCI tumour cell line growth inhibition, 48 h

Regarding `CNC(=S)N/N=C(\C(=N/NC(=S)NC)c1ccccn1)c1ccccn1`, the GI50 is 1.19 µM (inactive) in the assay on SF-268; 14.4 µM (inactive) with BT-549; 44.3 µM (inactive) in the assay with MDA-N; 1.24 µM (inactive) in the assay on SW-620; 2 µM (inactive) in the assay with NCI-H226; 5.07 µM (inactive) with RXF 393. Besides, the GI50 is 1.53 µM (inactive) in the assay on SK-MEL-5; < 0.0306 µM (active) in the assay on HCT-116; 8.05 µM (inactive) in the assay on DU-145; 13.8 µM (inactive) in the assay on MDA-MB-435; 4.08 µM (inactive) in the assay with SN12C; 15.2 µM (inactive) with HOP-92. Moreover, the GI50 in the assay on K562 is 4.55 µM (inactive); with MCF7, < 0.0355 µM (active); in the assay with SNB-75, 20.8 µM (inactive); in the assay on A498 it was 4.58 µM (inactive); with HOP-62 it was 7.78 µM (inactive).
For the molecule `CC(=N/NC(=S)N(C)C)/C(=N\NC(=S)N(C)C)c1ccccc1`, the GI50 is 7.16 µM (inactive) with MOLT-4; 2.07 µM (inactive) in the assay with SF-268; 2.17 µM (inactive) in the assay on BT-549; 2.11 µM (inactive) with MDA-N; 1.93 µM (inactive) with SW-620; 1.71 µM (inactive) with NCI-H226. The GI50 is 1.46 µM (inactive) in the assay with RXF 393; 1.64 µM (inactive) in the assay on SK-MEL-5; 2.93 µM (inactive) in the assay on HCT-116; 5.46 µM (inactive) in the assay on DU-145; 1.87 µM (inactive) in the assay with MDA-MB-435; 1.47 µM (inactive) with SN12C. The GI50 is 1.95 µM (inactive) in the assay on HOP-92; 5.15 µM (inactive) in the assay with K562; 2.84 µM (inactive) with MCF7; 2.12 µM (inactive) in the assay with SNB-75; 1.59 µM (inactive) with A498; 2.24 µM (inactive) in the assay on HOP-62.
`OCCSCc1cc(Cl)cc(Cl)c1O`: the GI50 was > 100 µM (inactive) in the assay with MOLT-4; > 100 µM (inactive) in the assay on SF-268; > 100 µM (inactive) in the assay on BT-549; > 100 µM (inactive) in the assay with MDA-N; > 100 µM (inactive) in the assay with SW-620; 61.7 µM (inactive) in the assay on NCI-H226. Also, the GI50 with RXF 393, with SK-MEL-5, with HCT-116, in the assay on DU-145, with MDA-MB-435 and in the assay with SN12C was > 100 µM (inactive) each time. The GI50 in the assay on HOP-92 is 57.9 µM (inactive); in the assay on K562, > 100 µM (inactive); with MCF7, > 100 µM (inactive); with A498, > 100 µM (inactive); with HOP-62, > 100 µM (inactive).
In the case of `CS(=O)(=O)C[S+]([O-])C[S+]([O-])C[S+]([O-])CC(NC(=O)CCC(N)C(=O)O)C(=O)O` (stereo not drawn), the GI50 with MOLT-4, with SF-268, in the assay on BT-549, in the assay with MDA-N, in the assay on SW-620 and in the assay on SK-MEL-5 was > 100 µM (inactive) throughout. Also, the GI50 with HCT-116, in the assay with DU-145, with MDA-MB-435, in the assay with SN12C, in the assay on HOP-92 and in the assay on K562 was > 100 µM (inactive) throughout. Also, the GI50 with SR is 16.3 µM (inactive); with MCF7, > 100 µM (inactive); with SNB-75, > 100 µM (inactive); in the assay with HOP-62, > 100 µM (inactive).
`COc1ccc(-c2csc(-n3c(-c4ccccc4)nc4c(Br)cc(Br)cc4c3=O)n2)cc1`: the GI50 was 17.8 µM (inactive) in the assay on MOLT-4; 15.6 µM (inactive) in the assay on SF-268; 17.8 µM (inactive) with BT-549; 25.4 µM (inactive) in the assay with MDA-N; 33.6 µM (inactive) in the assay on SW-620; 27.7 µM (inactive) in the assay on NCI-H226. Also, the GI50 in the assay with RXF 393 was 26.3 µM (inactive); with SK-MEL-5 it was 18.2 µM (inactive); in the assay with HCT-116 it was 22.5 µM (inactive); with DU-145, 39.2 µM (inactive); in the assay on MDA-MB-435, 38.3 µM (inactive); in the assay on HOP-92, 5.14 µM (inactive). In addition, the GI50 with K562 is 20.8 µM (inactive); in the assay with MCF7, 35.1 µM (inactive); in the assay on SNB-75, 31.3 µM (inactive); in the assay with A498, 15.5 µM (inactive); with HOP-62, 40.1 µM (inactive).
With `CC1(C)CNCC(C)(OCc2ccccc2)C(=O)NC(C)(C)CNCC(C)(OCc2ccccc2)C(=O)N1` (stereo not drawn), the GI50 in the assay on MOLT-4, in the assay with SF-268, in the assay with BT-549, in the assay on MDA-N, with SW-620 and in the assay with NCI-H226 was > 10 µM (inactive) in each case. The GI50 in the assay on RXF 393 was 3.78 µM (inactive); in the assay with SK-MEL-5, > 10 µM (inactive); in the assay with HCT-116 it was 8.99 µM (inactive); in the assay with DU-145, > 10 µM (inactive); with MDA-MB-435, > 10 µM (inactive); in the assay with SN12C, > 10 µM (inactive). The GI50 in the assay on HOP-92 is 0.385 µM (active); in the assay with K562 it was > 10 µM (inactive); with MCF7, > 10 µM (inactive); in the assay with SNB-75, 6.27 µM (inactive); with A498, > 10 µM (inactive); in the assay on HOP-62, > 10 µM (inactive).
In the case of `COc1cn2c(cc1=O)COc1ccc(-c3ccccc3)cc1-2`, the GI50 with MOLT-4 was 44.5 µM (inactive); in the assay with SF-268, 60.8 µM (inactive); in the assay with BT-549, 24.7 µM (inactive); in the assay with MDA-N it was 49.5 µM (inactive); in the assay with SW-620, > 100 µM (inactive); with NCI-H226, 64.6 µM (inactive). Moreover, the GI50 was > 82.6 µM (inactive) with RXF 393; 23.5 µM (inactive) in the assay on SK-MEL-5; 40 µM (inactive) with HCT-116; 52.4 µM (inactive) in the assay with DU-145; 39.7 µM (inactive) in the assay on MDA-MB-435; 77.3 µM (inactive) with SN12C. In addition, the GI50 in the assay on HOP-92 was 46.9 µM (inactive); in the assay on K562 it was 89.3 µM (inactive); in the assay on SR it was 15.2 µM (inactive); with MCF7, 21.1 µM (inactive); with SNB-75, 35.8 µM (inactive); in the assay on HOP-62, 83.6 µM (inactive).
For `O=C1/C(=C/c2ccc(Cl)cc2)CCCc2ccccc21`, the GI50 with MOLT-4 was 14.8 µM (inactive); in the assay with SF-268, 13.9 µM (inactive); in the assay with BT-549, 20.3 µM (inactive); with MDA-N, 17.1 µM (inactive); with SW-620, 15.4 µM (inactive); in the assay with NCI-H226, 16.4 µM (inactive). Besides, the GI50 in the assay with HCT-116 was 13.6 µM (inactive); in the assay with DU-145, 23.1 µM (inactive); in the assay on MDA-MB-435, 17.1 µM (inactive); in the assay on SN12C it was 18.7 µM (inactive); in the assay on HOP-92 it was 21.5 µM (inactive); in the assay on K562 it was 3.24 µM (inactive). Also, the GI50 in the assay with SR was 13.6 µM (inactive); in the assay with MCF7, 17.2 µM (inactive); with SNB-75, 30.3 µM (inactive); with HOP-62, 24.5 µM (inactive).
Take `O=C1c2ccccc2-c2c1c(-c1ccc(F)cc1)nc1ccc3ccccc3c21`: the GI50 with MOLT-4, in the assay with SF-268, in the assay on BT-549, with MDA-N, in the assay with SW-620 and in the assay with NCI-H226 was > 100 µM (inactive) in each case. Further, the GI50 in the assay with RXF 393, in the assay on HCT-116, with DU-145, in the assay with MDA-MB-435, in the assay with SN12C and in the assay on K562 was > 100 µM (inactive) each time. Moreover, the GI50 with MCF7, with SNB-75, in the assay on A498 and with HOP-62 was > 100 µM (inactive) throughout.
In the case of `CCN(CC)C(=O)N1CN(c2ccccc2)C2(CCN(CCCSc3ccc(F)cc3)CC2)C1=O`, the GI50 in the assay with MOLT-4 was 3.25 µM (inactive); in the assay with SF-268, 11.1 µM (inactive); in the assay with BT-549, 13.5 µM (inactive); with MDA-N, 6.15 µM (inactive); with SW-620 it was 6.75 µM (inactive); in the assay with NCI-H226, 18.9 µM (inactive). Also, the GI50 in the assay with RXF 393 was 16.2 µM (inactive); in the assay with SK-MEL-5, 3.66 µM (inactive); with HCT-116, 2.58 µM (inactive); in the assay on DU-145, 5.14 µM (inactive); in the assay with MDA-MB-435, 12.8 µM (inactive); in the assay with SN12C, 9.18 µM (inactive). Besides, the GI50 with K562 was 8.32 µM (inactive); in the assay on SR, 3.8 µM (inactive); with MCF7, 4.19 µM (inactive); with SNB-75, 20.6 µM (inactive).
Regarding `O=C(/C=C1\N=C(c2ccccc2)N(c2nc3ccc(Sc4ccccc4)cc3[nH]2)C1=O)/C=C/c1ccccc1`, the GI50 is 33.3 µM (inactive) in the assay with MOLT-4; 31.4 µM (inactive) with SF-268; 31.1 µM (inactive) in the assay on BT-549; 14.9 µM (inactive) in the assay with MDA-N; 33.9 µM (inactive) in the assay with SW-620; 22.8 µM (inactive) in the assay with RXF 393. Also, the GI50 in the assay on SK-MEL-5 was 21.5 µM (inactive); with HCT-116, 32.8 µM (inactive); in the assay with DU-145 it was 28.1 µM (inactive); in the assay on MDA-MB-435, 15.7 µM (inactive); in the assay with SN12C it was 40 µM (inactive); with HOP-92 it was 37.8 µM (inactive). Moreover, the GI50 is 26.2 µM (inactive) in the assay on K562; 30.1 µM (inactive) in the assay on MCF7; 16.7 µM (inactive) in the assay on SNB-75; 27.9 µM (inactive) in the assay with A498; 39.7 µM (inactive) in the assay with HOP-62.
In the case of `COc1cc2c(cc1OC)C(C)N(C)c1c-2c(OC(C)=O)cc2cc(OC)c(OC)cc12` (stereo not drawn), the GI50 in the assay on MOLT-4 was 5.69 µM (inactive); with SF-268 it was 26.9 µM (inactive); in the assay with BT-549 it was 18.2 µM (inactive); in the assay on MDA-N, 14.6 µM (inactive); in the assay with SW-620, 23.7 µM (inactive); with NCI-H226, 2.33 µM (inactive). Further, the GI50 in the assay with RXF 393 was 6.12 µM (inactive); with SK-MEL-5, 4.67 µM (inactive); in the assay on HCT-116, 13.9 µM (inactive); with DU-145 it was 16.9 µM (inactive); in the assay on MDA-MB-435, 15.8 µM (inactive); in the assay on SN12C, 9.93 µM (inactive). Moreover, the GI50 in the assay on K562 was 23.4 µM (inactive); with MCF7 it was 12.5 µM (inactive); in the assay on SNB-75 it was 31 µM (inactive); in the assay on A498, 10.7 µM (inactive); with HOP-62, 21.3 µM (inactive).
